Legend:
[1] = Particle size distribution by dynamic image analysis (Camsizer X2 with X-Jet module); assay type: physicochemical
Description: Said preferred particle size distribution is determined by means of dynamic image analysis (Camsizer X2 from Retsch with X-Jet module), wherein a dispersion pressure of 5, 20, or 460 kPa was applied. The evaluation was carried out in three size models, namely:
Xc(min) Particle width which is determined from the narrowest of all measured chords xc;
XFe(max) Particle length which is determined from the longest of all measured Feret diameters xFe;
Xarea Equivalent particle diameter which corresponds to the circle equivalent diameter.

[2] = cited from earlier work

SMILES	Minimum d10 XFe(max) ([1]; dispersion pressure 5 kPa)	Minimum d10 Xarea ([1]; dispersion pressure 5 kPa)	Minimum d10 Xc(min) ([1]; dispersion pressure 5 kPa)	Minimum d50 XFe(max) ([1]; dispersion pressure 5 kPa)	Minimum d50 Xarea ([1]; dispersion pressure 5 kPa)	Minimum d50 Xc(min) ([1]; dispersion pressure 5 kPa)	Minimum d90 XFe(max) ([1]; dispersion pressure 5 kPa)	Minimum d90 Xarea ([1]; dispersion pressure 5 kPa)	Minimum d90 Xc(min) ([1]; dispersion pressure 5 kPa)	Minimum d10 XFe(max) ([1]; dispersion pressure 20 kPa)	Minimum d10 Xarea ([1]; dispersion pressure 20 kPa)	Minimum d10 Xc(min) ([1]; dispersion pressure 20 kPa)	Minimum d50 XFe(max) ([1]; dispersion pressure 20 kPa)	Minimum d50 Xarea ([1]; dispersion pressure 20 kPa)	Minimum d50 Xc(min) ([1]; dispersion pressure 20 kPa)	Minimum d90 XFe(max) ([1]; dispersion pressure 20 kPa)	Minimum d90 Xarea ([1]; dispersion pressure 20 kPa)	Minimum d90 Xc(min) ([1]; dispersion pressure 20 kPa)	Minimum d10 XFe(max) ([1]; dispersion pressure 460 kPa)	Minimum d10 Xarea ([1]; dispersion pressure 460 kPa)	other results
O=C(CO)C(O)C(O)C(O)CO (stereo not shown) [Comparative Example V1, allulose]	90 μm	75 μm	60 μm	210 μm	175 μm	130 μm	320 μm	255 μm	215 μm	60 μm	50 μm	40 μm	185 μm	170 μm	110 μm	315 μm	250 μm	210 μm	1 μm	2 μm	Minimum d10 Xc(min) ([1]; dispersion pressure 460 kPa): 2 μm; Minimum d50 XFe(max) ([1]; dispersion pressure 460 kPa): 55 μm; Minimum d50 Xarea ([1]; dispersion pressure 460 kPa): 40 μm; Minimum d50 Xc(min) ([1]; dispersion pressure 460 kPa): 30 μm; Minimum d90 XFe(max) ([1]; dispersion pressure 460 kPa): 150 μm; Minimum d90 Xarea ([1]; dispersion pressure 460 kPa): 110 μm; Minimum d90 Xc(min) ([1]; dispersion pressure 460 kPa): 110 μm
O=C(CO)C(O)C(O)C(O)CO (stereo not shown) [Example 1, allulose]	105 μm	90 μm	72 μm	230 μm	190 μm	150 μm	350 μm	270 μm	235 μm	75 μm	75 μm	55 μm	220 μm	195 μm	125 μm	335 μm	280 μm	225 μm	10 μm	12 μm	Minimum d10 Xc(min) ([1]; dispersion pressure 460 kPa): 12 μm; Minimum d50 XFe(max) ([1]; dispersion pressure 460 kPa): 70 μm; Minimum d50 Xarea ([1]; dispersion pressure 460 kPa): 55 μm; Minimum d50 Xc(min) ([1]; dispersion pressure 460 kPa): 45 μm; Minimum d90 XFe(max) ([1]; dispersion pressure 460 kPa): 175 μm; Minimum d90 Xarea ([1]; dispersion pressure 460 kPa): 135 μm; Minimum d90 Xc(min) ([1]; dispersion pressure 460 kPa): 135 μm
C=C1C[C@@]23CC[C@H]4[C@@](C)(CCC[C@@]4(C)C(=O)O[C@@H]4O[C@H](CO)[C@@H](O)[C@H](O)[C@H]4O)[C@@H]2CC[C@]1(O[C@@H]1O[C@H](CO)[C@@H](O)[C@H](O)[C@H]1O[C@@H]1O[C@H](CO)[C@@H](O)[C@H](O)[C@H]1O)C3 [stevioside]																					Daily intake considered harmless [2]: up to 4 mg per kilogram of body weight

— US20230139835A1, “ALLULOSE IN CRYSTALLINE FORM” (SAVANNA INGREDIENTS GMBH, priority 2020, published 2023)
